Source: patent publication US9926304B2, “1-(arylmethyl)quinazoline-2,4(1H,3H)-diones as PARP inhibitors and the use thereof” (Impact Therapeutics, Inc., priority 2011, dated 2018)

Experiments:
[1] = system: BRCA-2 deficient CAPAN-1 human pancreatic cancer cells; assay: MTT based cell viability assay: growth inhibition of BRCA-2 deficient CAPAN-1 cells; settings: 240 h, compound alone, 10 day assay
Description: Determination of the cell growth inhibiting activity of 1-(3-(4-(pyrimidin-2-yl)piperazine-1-carbonyl)benzyl)quinazoline-2,4(1H,3H)-dione and analogs on BRCA-2 deficient CAPAN-1 pancreatic duck cancer cells using a MTT based cell viability assay
BRCA-deficient cancer cells are sensitive to PARP inhibition. In the presence of PARP inhibitors, BRCA-deficient cancer cells could not grow and eventually will lead to death of cells. BRCA-2 deficient CAPAN-1 human pancreatic cancer cells were used to test the growth inhibiting activity of substituted 1-(arylmethyl)quinazoline-2,4(1H,3H)-diones. Briefly, CAPAN-1 cells are grown and maintained in IMEM medium supplemented with 20% FBS. The assay takes 10 days to finish. On day 1, 6000 CAPAN-1 cells are seeded to each well of a 96-well plate. The cells are incubated at 37° C. in a cell culture incubator overnight. In the next day, serial dilutions of compounds to be tested and reference compound (AZD2281) were prepared with a 1:3 and 1:10 fashion in DMSO. Ten-fold compound solutions were made by mixing 10 μl DMSO serial dilution solutions with 90 μl fresh growth medium. The cell culture medium was removed and 180 μl fresh media with FBS and 20 μl of compound solutions were added to each well. The final concentration of DMSO was 1%. Cells were then returned to the CO2 cell culture incubator and incubated at 37° C. for two days (day 3 and day 4). On day 5, the same procedure as what was done on day 2 was repeated. Cell culture medium was removed and fresh medium containing serial dilutions of compounds or reference compounds were added. Cells were returned to the CO2 cell culture incubator and incubated for two more days. On day 8, same procedure was repeated again and fresh medium containing the testing compounds or reference compounds were added and incubated for an additional 2 days. On day 10, 20 μl of MTT reagent (5 mg/ml) was added to each well of the cell culture plate and incubated for 4 h. The cell culture media was removed and 100 μl DMSO was added to each well. The 96-well cell culture plates were shaked horizontally for 10 min and readed in a Varioskan Flash plate reader (Thermo Fisher Scientific) at 520 and 690 nm. The obtained 520 nm absorbance readings subtracting corresponding 690 nm reading were analyzed using a commercial graphic software (GraphPad Prism 5) and plotted against the Log scale of the compound concentrations.

[2] = system: SW620 human colorectal cancer cells; assay: MTT based cell viability assay: potentiation of the growth inhibiting activity of MMS; settings: Homo sapiens, SW-620, 120 h, read-out: IC50 (nM), potentiation of the growth inhibiting activity of MMS, SW620 cells, 1.7 μg/ml MMS, 5 days (120 hours), MTT
[3] = system: Human breast cancer cell line T47D; assay: Cell based caspase-3 activity assay: potentiation of MMS induced apoptosis; settings: Homo sapiens, T47D, 24 h, T47D cells, 11.1 μg/ml MMS, 24 hours, intracellular caspase-3 activity; read-out: EC50 (nM), potentiation of the apoptosis inducing activity of MMS
In short: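 T47D cells were exposed for 24 h to compound plus a minimally apoptotic MMS dose (medium containing 11.1 μg/ml MMS). Lysates were incubated 3 h at 37 °C with (Ac-DEVD)2-R110 caspase-3 substrate (20 μM in added buffer) and read at ex 496/em 520 nm. EC50 came from a sigmoidal fit of RFU versus log concentration.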

Row | IC50 [1] [nM] | IC50 [2] [nM] | EC50 [3] [nM] | Compound
1 | > 10000 | 19 | 45 | O=C(c1cc(Cn2c(=O)[nH]c(=O)c3c(F)cccc32)ccc1F)N1CCN(C2CCCCC2)CC1 [Example 212, 1-(3-(4-Cyclohexylpiperazine-1-carbonyl)-4-fluorobenzyl)-5-fluoroquinazoline-2,4(1H,3H)-dione]
2 | 1840 | 618 | 214 | O=C(c1ccc(Br)cc1)N1CCN(C(=O)c2cccc(Cn3c(=O)[nH]c(=O)c4ccccc43)c2)CC1 [Example 11, 1-(3-(4-(4-Bromobenzoyl)piperazine-1-carbonyl)benzyl)quinazoline-2,4(1H,3H)-dione]
3 | 142 | 23 | 12 | O=C(c1ccc(F)c(Cn2c(=O)[nH]c(=O)c3c(F)cccc32)c1)N1CCN(c2ccccn2)CC1 [Example 155, 5-Fluoro-1-(6-fluoro-3-(4-(pyridin-2-yl)piperazine-1-carbonyl)benzyl)quinazoline-2,4(1H,3H)-dione]
4 | 1460 | 15 | 3.8 | O=C(c1cc(Cn2c(=O)[nH]c(=O)c3c(Cl)cccc32)ccc1F)N1CCN(C(=O)C2CCC2)CC1 [Example 168, 5-Chloro-1-(3-(4-(cyclobutylcarbonyl)piperazine-1-carbonyl)-4-fluorobenzyl)quinazoline-2,4(1H,3H)-dione]
5 | 452 | 8.3 | 2.6 | O=C(c1cc(Cn2c(=O)[nH]c(=O)c3c(Cl)cccc32)ccc1F)N1CCN(C(=O)C2CCCC2)CC1 [Example 104, 5-Chloro-1-(3-(4-(cyclopentylcarbonyl)piperazine-1-carbonyl)-4-fluorobenzyl)quinazoline-2,4(1H,3H)-dione]
6 | 111 | 15 | 11 | O=C(c1ccc(F)c(Cn2c(=O)[nH]c(=O)c3cc(Cl)ccc32)c1)N1CCN(c2ncccn2)CC1 [Example 123, 6-Chloro-1-(6-fluoro-3-(4-(pyrimidin-2-yl)piperazine-1-carbonyl)benzyl)quinazoline-2,4(1H,3H)-dione]
7 | 39 | 5.1 | 5.8 | O=C(c1cc(Cn2c(=O)[nH]c(=O)c3cc(Cl)ccc32)ccc1F)N1CCN(c2ncccn2)CC1 [Example 117, 6-Chloro-1-(4-fluoro-3-(4-(pyrimidin-2-yl)piperazine-1-carbonyl)benzyl)quinazoline-2,4(1H,3H)-dione]
8 | 208 | 11 | 2.2 | O=C(c1cc(Cn2c(=O)[nH]c(=O)c3ccccc32)ccc1F)N1CCN(C(=O)C2CCCCC2)CC1 [Example 41, 1-(3-(4-(Cyclohexylcarbonyl)piperazine-1-carbonyl)-4-fluorobenzyl)quinazoline-2,4(1H,3H)-dione]
9 | 665 | 45 | 29 | O=C(c1cc(Cn2c(=O)[nH]c(=O)c3c(Cl)cccc32)ccc1F)N1CCN(c2ncccn2)CC1 [Example 103, 5-Chloro-1-(4-fluoro-3-(4-(pyrimidin-2-yl)piperazine-1-carbonyl)benzyl)quinazoline-2,4(1H,3H)-dione]
10 | 160 | 8.2 | 4 | O=C(c1cc(Cn2c(=O)[nH]c(=O)c3ccccc32)ccc1F)N1CCN(C(=O)C2CCCC2)CC1 [Example 23, 1-(3-(4-(Cyclopentylcarbonyl)piperazine-1-carbonyl)-4-fluorobenzyl)quinazoline-2,4(1H,3H)-dione]
11 | 97 | 7.9 | 14 | O=C(c1cc(Cn2c(=O)[nH]c(=O)c3c(Cl)cccc32)ccc1F)N1CCN(C(=O)C2CCCCC2)CC1 [Example 105, 5-Chloro-1-(3-(4-(cyclohexylcarbonyl)piperazine-1-carbonyl)-4-fluorobenzyl)quinazoline-2,4(1H,3H)-dione]
12 | 312 | 202 | 70 | O=C(c1cccc(Cn2c(=O)[nH]c(=O)c3c(Cl)cccc32)c1)N1CCN(c2ncccn2)CC1 [Example 100, 5-Chloro-1-(3-(4-(pyrimidin-2-yl)piperazine-1-carbonyl)benzyl)quinazoline-2,4(1H,3H)-dione]
13 | 56 | 7.3 | 6.7 | O=C(c1ccc(F)c(Cn2c(=O)[nH]c(=O)c3c(F)cccc32)c1)N1CCN(c2ncccn2)CC1 [Example 154, 5-Fluoro-1-(6-fluoro-3-(4-(pyrimidin-2-yl)piperazine-1-carbonyl)benzyl)quinazoline-2,4(1H,3H)-dione]
14 | 167 | 24 | 6.8 | O=C(c1cc(F)cc(Cn2c(=O)[nH]c(=O)c3cc(F)ccc32)c1)N1CCN(c2ncccn2)CC1 [Example 186, 6-Fluoro-1-(5-fluoro-3-(4-(pyrimidin-2-yl)piperazine-1-carbonyl)benzyl)quinazoline-2,4(1H,3H)-dione]
15 | 421 | 99 | 63 | Cc1ccc2c(c1)c(=O)[nH]c(=O)n2Cc1cccc(C(=O)N2CCN(c3ncccn3)CC2)c1 [Example 81, 6-Methyl-1-(3-(4-(pyrimidin-2-yl)piperazine-1-carbonyl)benzyl)quinazoline-2,4(1H,3H)-dione]
16 | 735 | 26 | 20 | O=C(c1cc(Cn2c(=O)[nH]c(=O)c3ccccc32)ccc1F)N1CCN(c2ccccn2)CC1 [Example 24, 1-(4-Fluoro-3-(4-(pyridin-2-yl)piperazine-1-carbonyl)benzyl)quinazoline-2,4(1H,3H)-dione]
17 | > 10000 | 666 | 803 | O=C(c1cccc(Cn2c(=O)[nH]c(=O)c3ccccc32)c1)N1CCN(C(=O)C2CC2)CC1 [Example 15, 1-(3-(4-(Cyclopropylcarbonyl)piperazine-1-carbonyl)benzyl)quinazoline-2,4(1H,3H)-dione]
18 | 1780 | 119 | 39 | O=C(c1cccc(Cn2c(=O)[nH]c(=O)c3ccccc32)c1)N1CCN(C(=O)C2CCC2)CC1 [Example 30, 1-(3-(4-(Cyclobutylcarbonyl)piperazine-1-carbonyl)benzyl)quinazoline-2,4(1H,3H)-dione]
19 | 52 | 14 | 5.8 | O=C(c1ccc(F)c(Cn2c(=O)[nH]c(=O)c3cc(F)ccc32)c1)N1CCN(c2ncccn2)CC1 [Example 149, 6-Fluoro-1-(6-fluoro-3-(4-(pyrimidin-2-yl)piperazine-1-carbonyl)benzyl)quinazoline-2,4(1H,3H)-dione]
20 | 77 | 27 | 1.7 | O=C(c1cccc(Cn2c(=O)[nH]c(=O)c3cc(Cl)ccc32)c1)N1CCN(c2ncccn2)CC1 [Example 111, 6-Chloro-1-(3-(4-(pyrimidin-2-yl)piperazine-1-carbonyl)benzyl)quinazoline-2,4(1H,3H)-dione]
21 | 161 | 6.3 | 9.5 | O=C(c1cccs1)N1CCN(C(=O)c2cc(Cn3c(=O)[nH]c(=O)c4c(Cl)cccc43)ccc2F)CC1 [Example 107, 5-Chloro-1-(4-fluoro-3-(4-(thiophene-2-carbonyl)piperazine-1-carbonyl)benzyl)quinazoline-2,4(1H,3H)-dione]
22 | 40 | 7.1 | 3.2 | O=C(c1cccs1)N1CCN(C(=O)c2cc(Cn3c(=O)[nH]c(=O)c4c(F)cccc43)ccc2F)CC1 [Example 136, 5-Fluoro-1-(4-fluoro-3-(4-(thiophene-2-carbonyl)piperazine-1-carbonyl)benzyl)quinazoline-2,4(1H,3H)-dione]
23 | 442 | 37 | 12 | O=C(c1cccc(Cn2c(=O)[nH]c(=O)c3c(F)cccc32)c1)N1CCN(C(=O)C2CCCC2)CC1 [Example 128, 1-(3-(4-(Cyclopentylcarbonyl)piperazine-1-carbonyl)benzyl)-5-fluoroquinazoline-2,4(1H,3H)-dione]
